From patent US20260284018A1, “DUAL INHIBITORS OF DYRK1A AND 5-HT2 FOR TREATING A BRAIN DISORDER” (THE REGENTS OF THE UNIVERSITY OF CALIFORNIA, priority 2023, published 2026)

Test system: phospho-Tau
Assay: Phospho-Tau assay using cultured rat cortical neurons (okadaic acid insult)
Assay type: cell-based
Conditions: 30 nM okadaic acid; for Tau phosphorylated at Ser202/Thr205: 50 μM pretreatment; for Tau phosphorylated at Ser202/Thr205 / Tau phosphorylated at Ser396: rat cortical neurons; for Tau phosphorylated at Ser396 / hyperphosphorylation of Tau (pTau accumulation) induced by okadaic acid: pretreatment; for hyperphosphorylation of Tau (pTau accumulation) induced by okadaic acid: rat cortical cultures, FIG. 14 and 15B
Procedure: Phospho-Tau Assay Using Cultured Rat Cortical Neurons. Primary cortical cell cultures were prepared as described previously.^2 Briefly, pregnant Sprague Dawley dams were euthanized at embryonic day 18 (E18), and the cortices of the pups were harvested. Cells were plated on poly-d-lysine coated plates at 15,000 cells per well. Cultures were maintained at 37° C. under an atmosphere containing 5% CO2. Plating media consisted of 10% heat-inactivated fetal bovine serum (FBS; Fisher) 1% penicillin-streptomycin (Fisher), and 0.5 mM glutamine (Life Technologies) in Neurobasal (Fisher). After 16-24 h, media was exchanged for replacement media consisting of IX B27 supplement (Fisher), 1% penicillin-streptomycin, 0.5 mM glutamine, and 12.5 μM glutamate in Neurobasal. On DIV6 and DIV13, 50% of media was removed, and feeding media containing 1×B27 supplement, 1% penicillin-streptomycin, 0.5 mM glutamine in Neurobasal was added with an additional 20% volume added to account for evaporation. On DIV14, the volume of each well was adjusted to 180 μL. Next, 1000× solutions of compounds in DMSO were diluted 1:100 into Neurobasal and 20 μL of the resulting solutions was added to the appropriate wells (total dilution=1:1000, 0.1% DMSO). For wells that were not treated with compounds, DMSO was diluted 1:100 into Neurobasal and 20 μL of the resulting solution was added to the appropriate wells. All treatments were randomized. After 24 h, 20 μL was removed from each well. […] After 1 h, neurons were fixed by removing 80% of the media and replacing it with a volume of 4% aqueous paraformaldehyde (ThermoFisher) equal to 50% of the working volume of the well. Then, the cells were incubated at room temperature for 15 min before the fixative was aspirated and each well was washed twice with DPBS. Cells were permeabilized using 0.2% Triton X-100 (ThermoFisher) in DPBS for 15 min at room temperature without shaking. Plates were blocked with blocking buffer (2% bovine serum albumin and […] in DPBS) overnight at 4° C. Then, plates were incubated overnight at 4° C. with gentle shaking in antibody dilution buffer (ADB) (1% bovine serum albumin and […] in DBPS) containing a chicken anti-MAP2 antibody (1:10,000; EnCor, CPCA-MAP2), guinea pig anti-Tau antibody (1:1000; Synaptic Systems), mouse anti-phosphoTau (Ser202/Thr205) antibody (1:1000; Invitrogen), and rabbit anti-phosphoTau (Ser396) antibody (1:1000; Invitrogen). Plates were washed twice with DPBS and once with ADB before being incubated for 1 h at room temperature in ADB containing an anti-chicken IgY secondary antibody conjugated to Alexa Fluor™ Plus 800 (1:1000; Invitrogen), an anti-mouse IgG secondary antibody conjugated to Alexa Fluor™ Plus 680 (1:1000; Invitrogen), an anti-guinea pig IgG secondary antibody conjugated to Alexa Fluor™ 596 (1:1000; Invitrogen), and an anti-rabbit IgG secondary antibody conjugated to Alexa Fluor™ Plus 488 (1:1000; Invitrogen). Plates were washed three times with DBPS, and after the final wash, 100 μL of DPBS was added per well before imaging on a CellInsight™ CX7 High Content Analysis imager at 20× with 12 ROIs taken per well with no bias to location and no overlap of the ROIs. Images were analyzed using Cellnomics Scan software (version 6.6.2). The compartmental analysis assay was used to measure the average intensity of each channel per field and determine the reported intensity ratios.

SMILES	Tau phosphorylated at Ser202/Thr205	Tau phosphorylated at Ser396	hyperphosphorylation of Tau (pTau accumulation) induced by okadaic acid
COc1ccc2c(c1)N(CCN(C)C)/C(=C/C(C)=O)S2.O=C(O)/C=C/C(=O)O [HTW_B_14 fumarate, (Z)-1-(3-(2-(dimethylamino)ethyl)-5-methoxybenzo[d]thiazol-2(3H)-ylidene)propan-2-one Fumarate Salt (1:1)]	not observed	no reduction	
COc1ccc2c3ccnc(C)c3n(CCN(C)C)c2c1.O=C(O)/C=C/C(=O)O [HTW_A_8 fumarate, 2-(7-methoxy-1-methyl-9H-pyrido[3,4-b]indol-9-yl)-N,N-dimethylethan-1-amine Fumarate Salt (2:3)]	can block an increase in Tau phosphorylated at Ser202/Thr205	no reduction	blocks hyperphosphorylation of Tau
COc1ccc2c(c1)[nH]c1c(C)nccc12 [Harmine, harmine]			prevents pTau accumulation in cortical neurons
